# Laboratory results: PubChem BioAssay (NCI)
#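 Method: 48-hour compound exposure of cells in 96-well plates, five concentrations, linear interpolation of endpoints. TGI marks complete inhibition of growth.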
# What was measured:
# Test in all cases: NCI-60 cell line screen, 48 h
# OVCAR-5 ovarian = test system: OVCAR-5 ovarian
# UO-31 renal = test system: UO-31 renal
# SK-MEL-28 melanoma = test system: SK-MEL-28 melanoma
# K-562 leukemia = test system: K-562 leukemia
# NCI-H226 lung = test system: NCI-H226 lung
# HCT-15 colon = test system: HCT-15 colon
# SK-OV-3 ovarian = test system: SK-OV-3 ovarian
# LOX IMVI melanoma = test system: LOX IMVI melanoma
# NCI-H522 lung = test system: NCI-H522 lung
# COLO 205 colon = test system: COLO 205 colon
# MALME-3M melanoma = test system: MALME-3M melanoma
# MOLT-4 leukemia = test system: MOLT-4 leukemia
# SNB-19 CNS = test system: SNB-19 CNS
# SN12C renal = test system: SN12C renal
# NCI-H23 lung = test system: NCI-H23 lung
# BT-549 breast = test system: BT-549 breast
# PC-3 prostate = test system: PC-3 prostate
# MDA-MB-435 = test system: MDA-MB-435
# DU-145 prostate = test system: DU-145 prostate
Structure (SMILES),TGI (OVCAR-5 ovarian) [µM],TGI (UO-31 renal) [µM],TGI (SK-MEL-28 melanoma) [µM],TGI (K-562 leukemia) [µM],TGI (NCI-H226 lung) [µM],TGI (HCT-15 colon) [µM],TGI (SK-OV-3 ovarian) [µM],TGI (LOX IMVI melanoma) [µM],TGI (NCI-H522 lung) [µM],TGI (COLO 205 colon) [µM],TGI (MALME-3M melanoma) [µM],TGI (MOLT-4 leukemia) [µM],TGI (SNB-19 CNS) [µM],TGI (SN12C renal) [µM],TGI (NCI-H23 lung) [µM],TGI (BT-549 breast) [µM],TGI (PC-3 prostate) [µM],TGI (MDA-MB-435) [µM],TGI (DU-145 prostate) [µM]
NC(=O)C#CC#CC#CCO,33.1,3.68,3.58,4.65,27.5,3.5,25.5,3.83,0.301,2.65,3.72,2.67,29.6,3.76,3.93,,,,
O=C1[C@@H]2C(c3ccc(Cl)cc3Cl)=NO[C@@H]2C(=O)N1c1ccc(Cc2ccc(N3C(=O)[C@H]4C(c5ccc(Cl)cc5Cl)=NO[C@H]4C3=O)cc2)cc1,> 100,> 100,> 100,> 100,> 100,> 100,> 100,> 100,,> 100,> 100,> 100,,> 100,> 100,,,,
Cc1ccc(N=NC2S/C(=C(\C#N)c3nc4ccccc4[nH]3)N(c3ccccc3)C2=O)cc1 (stereo not drawn),> 100,> 100,> 100,> 100,> 100,> 100,> 100,> 100,> 100,> 100,> 100,,> 100,> 100,> 100,,,,
CCCCCCCc1cc(OC(=O)c2c(C)cc(OC)cc2O)cc(O)c1C(=O)O,32.1,30.6,38.7,> 100,,,69.2,48.7,48.3,37.3,37.6,88.3,58.3,82.9,43.1,,,,
CCCOC(=O)C1CCC(=O)N1C(=O)C(C)Cl (stereo not drawn),> 100,> 100,> 100,> 100,> 100,> 100,> 100,> 100,> 100,> 100,> 100,> 100,> 100,> 100,> 100,,,,
COc1ccccc1/C=C(\C#N)C(=O)c1ccccc1,> 100,> 100,> 100,> 100,> 100,> 100,> 100,> 100,> 100,> 100,> 100,> 100,> 100,> 100,> 100,,,,
COc1ccc(NC(=O)CC(=O)N2N=C(N(CCC#N)c3ccccc3Cl)CC2c2ccccc2)cc1 (stereo not drawn),> 100,> 100,> 100,> 100,> 100,> 100,,> 100,> 100,> 100,> 100,> 100,> 100,> 100,> 100,,,,
COC(=O)[C@@H]1C=C[C@H](OC2OC(COC(C)=O)C(OC(C)=O)C(OC(C)=O)C2OC(C)=O)n2c(=O)c3ccccc3c(=O)n21 (stereo partly drawn),29.6,27.5,27.8,24.5,46.3,22.7,28.2,29.5,3.28,22.4,39.6,41.1,47.2,,39.9,18.2,25.3,23,38.3
C=[N+](CNC(=O)CNC(=O)C(Cc1ccc([N+](=O)[O-])cc1)NC(=O)OC(C)(C)C)C(=O)CNC(=O)C(Cc1ccc([N+](=O)[O-])cc1)NC(=O)OC(C)(C)C (stereo not drawn),> 100,> 100,72.6,> 100,> 100,> 100,> 100,33.4,79.8,> 100,> 100,67.4,> 100,> 100,> 100,85.5,> 100,62.7,> 100
CCOc1ccc(NC(=O)C(=O)NO)cc1,> 100,> 100,> 100,> 100,> 100,> 100,> 100,> 100,> 100,> 100,> 100,> 100,> 100,> 100,> 100,,,,
CC1OC(n2ccc(=O)[nH]c2=O)C=C(OC(=O)c2ccccc2)C1=O (stereo not drawn),,> 100,> 100,> 100,,> 100,> 100,> 100,,> 100,> 100,> 100,> 100,> 100,> 100,,,,
Cc1ccc(O)c(C(c2ccc([N+](=O)[O-])cc2)c2cc(C)ccc2O)c1,28.9,15.2,38.4,> 100,39.9,23.8,30,55.6,28.6,44.1,,26.3,26.2,27.3,21.5,,14.3,28.5,27.4
CC(C)CC[C@H](O)[C@@H](C)[C@H]1[C@@H](OC2OC(C)C(O)C(O)C2O)C[C@H]2[C@@H]3CC=C4C[C@@H](O)CC[C@]4(C)[C@H]3[C@@H](O)C[C@]12C (stereo partly drawn),> 100,21.7,6.47,0.422,,> 100,> 100,> 100,> 100,7.17,> 68.9,0.508,> 100,> 100,> 100,> 100,> 100,> 100,> 100
Cc1ccccc1C1OC(=O)c2ccccc21 (stereo not drawn),> 100,> 100,> 100,> 100,> 100,> 100,> 100,> 100,> 100,> 100,> 100,> 100,> 100,> 100,> 100,,,,
